Legend:
[1] = system: glucocorticoid signaling genes in RL cells; experiment: RT2 Glucocorticoid Signaling PCR array; assay type: cell-based; conditions: 4 days, 1 μM Cpd44, Pred 10-fold below 4-day IC50
DOHH2 cells = experiment: Medium throughput combination proliferation assay (CellTiter-Glo, Chou-Talalay CI / potency shift); conditions: DOHH2 EZH2 wild-type cells

CCN(c1cc(-c2ccc(CN3CCOCC3)cc2)cc(C(=O)NCc2c(C)cc(C)[nH]c2=O)c1C)C1CCOCC1 [Compound 44]
ACTB Ct value [1]: 15.664
ACTB ΔCT (B2M) [1]: −3.694
ADARB1 Ct value [1]: 26.650
ADARB1 ΔCT (B2M) [1]: 7.292
AFF1 Ct value [1]: 26.820
AFF1 ΔCT (B2M) [1]: 7.462
AK2 Ct value [1]: 20.270
AK2 ΔCT (B2M) [1]: 0.912
AMPD3 Ct value [1]: 27.191
AMPD3 ΔCT (B2M) [1]: 7.833
ANGPTL4 Ct value [1]: 29.820
ANGPTL4 ΔCT (B2M) [1]: 10.462
ANXA4 Ct value [1]: 24.395
ANXA4 ΔCT (B2M) [1]: 5.037
ARID5B Ct value [1]: 27.333
ARID5B ΔCT (B2M) [1]: 7.975
ASPH Ct value [1]: 23.466
ASPH ΔCT (B2M) [1]: 4.108
ATF4 Ct value [1]: 18.269
ATF4 ΔCT (B2M) [1]: −1.089
B2M Ct value [1]: 19.358
B2M ΔCT (B2M) [1]: 0.000
BCL6 Ct value [1]: 20.289
BCL6 ΔCT (B2M) [1]: 0.931
CEBPA Ct value [1]: 36.511
CEBPA ΔCT (B2M) [1]: 17.153
CEBPB Ct value [1]: 23.765
CEBPB ΔCT (B2M) [1]: 4.407
COL4A2 Ct value [1]: 31.782
COL4A2 ΔCT (B2M) [1]: 12.424
CREB1 Ct value [1]: 23.217
CREB1 ΔCT (B2M) [1]: 3.859
CREB3 Ct value [1]: 24.178
CREB3L4 Ct value [1]: 23.500
CREB3L4 ΔCT (B2M) [1]: 4.142
CREB3 ΔCT (B2M) [1]: 4.820
CYB561 Ct value [1]: 38.452
CYB561 ΔCT (B2M) [1]: 19.094
DDIT4 Ct value [1]: 22.679
DDIT4 ΔCT (B2M) [1]: 3.321
DUSP1 Ct value [1]: 25.422
DUSP1 ΔCT (B2M) [1]: 6.064
EDN1 Ct value [1]: 31.815
EDN1 ΔCT (B2M) [1]: 12.457
EHD3 Ct value [1]: 24.572
EHD3 ΔCT (B2M) [1]: 5.214
ERRFI1 Ct value [1]: 31.705
ERRFI1 ΔCT (B2M) [1]: 12.347
FKBP5 Ct value [1]: 21.757
FKBP5 ΔCT (B2M) [1]: 2.399
FOSL2 Ct value [1]: 30.761
FOSL2 ΔCT (B2M) [1]: 11.403
GAPDH Ct value [1]: 15.720
GAPDH ΔCT (B2M) [1]: −3.638
GDPD1 Ct value [1]: 27.394
GDPD1 ΔCT (B2M) [1]: 8.036
GHRHR Ct value [1]: 37.546
GHRHR ΔCT (B2M) [1]: 18.188
GLUL Ct value [1]: 28.738
GLUL ΔCT (B2M) [1]: 9.380
GOT1 Ct value [1]: 22.584
GOT1 ΔCT (B2M) [1]: 3.226
H6PD Ct value [1]: 25.012
H6PD ΔCT (B2M) [1]: 5.654
HNRPLL Ct value [1]: 22.844
HNRPLL ΔCT (B2M) [1]: 3.486
HPRT1 Ct value [1]: 22.013
HPRT1 ΔCT (B2M) [1]: 2.655
IL1RN Ct value [1]: 28.405
IL1RN ΔCT (B2M) [1]: 9.047
IL6R Ct value [1]: 29.246
IL6R ΔCT (B2M) [1]: 9.888
IL10 Ct value [1]: 31.498
IL10 ΔCT (B2M) [1]: 12.140
KLF13 Ct value [1]: 22.854
KLF13 ΔCT (B2M) [1]: 3.496
MERTK Ct value [1]: 30.691
MERTK ΔCT (B2M) [1]: 11.333
MT1E Ct value [1]: 34.215
MT1E ΔCT (B2M) [1]: 14.857
MT2A Ct value [1]: 24.279
MT2A ΔCT (B2M) [1]: 4.921
NFKBIA Ct value [1]: 23.710
NFKBIA ΔCT (B2M) [1]: 4.352
NR3C1 Ct value [1]: 22.616
NR3C1 ΔCT (B2M) [1]: 3.258
PDCD7 Ct value [1]: 24.406
PDCD7 ΔCT (B2M) [1]: 5.048
PDP1 Ct value [1]: 25.387
PDP1 ΔCT (B2M) [1]: 6.029
PER1 Ct value [1]: 25.492
PER1 ΔCT (B2M) [1]: 6.134
PER2 Ct value [1]: 24.378
PER2 ΔCT (B2M) [1]: 5.020
PIK3R1 Ct value [1]: 23.908
PIK3R1 ΔCT (B2M) [1]: 4.550
PLEKHF1 Ct value [1]: 30.520
PLEKHF1 ΔCT (B2M) [1]: 11.162
POU2F1 Ct value [1]: 24.243
POU2F1 ΔCT (B2M) [1]: 4.885
POU2F2 Ct value [1]: 21.769
POU2F2 ΔCT (B2M) [1]: 2.411
RASA3 Ct value [1]: 26.279
RASA3 ΔCT (B2M) [1]: 6.921
RGS2 Ct value [1]: 25.721
RGS2 ΔCT (B2M) [1]: 6.363
RPLP0 Ct value [1]: 14.837
RPLP0 ΔCT (B2M) [1]: −4.521
SESN1 Ct value [1]: 24.425
SESN1 ΔCT (B2M) [1]: 5.067
SGK1 Ct value [1]: 26.262
SGK1 ΔCT (B2M) [1]: 6.904
SLC19A2 Ct value [1]: 25.536
SLC19A2 ΔCT (B2M) [1]: 6.178
SNTA1 Ct value [1]: 25.554
SNTA1 ΔCT (B2M) [1]: 6.196
SPHK1 Ct value [1]: 31.119
SPHK1 ΔCT (B2M) [1]: 11.761
SPSB1 Ct value [1]: 26.285
SPSB1 ΔCT (B2M) [1]: 6.927
STAT5A Ct value [1]: 22.769
STAT5A ΔCT (B2M) [1]: 3.411
STAT5B Ct value [1]: 22.683
STAT5B ΔCT (B2M) [1]: 3.325
TBL1XR1 Ct value [1]: 21.663
TBL1XR1 ΔCT (B2M) [1]: 2.305
TNF Ct value [1]: 24.712
TNF ΔCT (B2M) [1]: 5.354
TNFAIP3 Ct value [1]: 26.896
TNFAIP3 ΔCT (B2M) [1]: 7.538
TSC22D3 Ct value [1]: 23.300
TSC22D3 ΔCT (B2M) [1]: 3.942
USP2 Ct value [1]: 21.420
USP2 ΔCT (B2M) [1]: 2.062
USP54 Ct value [1]: 26.364
USP54 ΔCT (B2M) [1]: 7.006
VDR Ct value [1]: 27.736
VDR ΔCT (B2M) [1]: 8.378
ZFP36 Ct value [1]: 24.374
ZFP36 ΔCT (B2M) [1]: 5.016
ZHX3 Ct value [1]: 29.785
ZHX3 ΔCT (B2M) [1]: 10.427
ZNF281 Ct value [1]: 23.667
ZNF281 ΔCT (B2M) [1]: 4.309
AFF1 ΔΔCT ([1]; vs DMSO): −2.006
ATF4 ΔΔCT ([1]; vs DMSO): 0.003
CEBPB ΔΔCT ([1]; vs DMSO): −0.004
CREB3L4 ΔΔCT ([1]; vs DMSO): −0.760
HNRPLL ΔΔCT ([1]; vs DMSO): 0.309
LOX ΔΔCT ([1]; vs DMSO): −0.580
NFKBIA ΔΔCT ([1]; vs DMSO): 0.854
NR3C1 ΔΔCT ([1]; vs DMSO): 0.067
PDCD7 ΔΔCT ([1]; vs DMSO): 0.006
PLEKHF1 ΔΔCT ([1]; vs DMSO): 0.050
POU2F1 ΔΔCT ([1]; vs DMSO): −0.027
POU2F2 ΔΔCT ([1]; vs DMSO): −0.584
RASA3 ΔΔCT ([1]; vs DMSO): −0.009
SNTA1 ΔΔCT ([1]; vs DMSO): 0.040
STAT5A ΔΔCT ([1]; vs DMSO): 0.001
STAT5B ΔΔCT ([1]; vs DMSO): −0.094
ZFP36 ΔΔCT ([1]; vs DMSO): −0.036
ZNF281 ΔΔCT ([1]; vs DMSO): 0.046
anti-proliferative effect as a single agent (DOHH2 cells): no anti-proliferative effect
